# Laboratory results taken from patent US20070092939A1, “HUMAN IMMUNODEFICIENCY VIRUS ENTRY INHIBITOR ASSAY” (priority 2003, published 2007).
# B1: TNX-901: humanized antibody IgG1; functionally irrelevant control (antibody, chains of the INN, looked up, V domains shown)
# VH: QVQLVQSGAEVKKPGASVKVSCKASGYTFSMYWLEWVRQAPGHGLEWVGEISPGTFTTNYNEKFKARATFTADTSTNTAYMELSSLRSEDTAVYYCARFSHFSGSNYDYFDYWGQGTLVTVSS
# VL: DILLTQSPGTLSLSPGERATLSCRASQSIGTNIHWYQQKPGQAPRLLIKYASESISGIPSRFSGSGSGTDFTLTISRLEPEDFAMYYCQQSDSWPTTFGQGTKVEIK
# System: co-cultivation-induced fusion between HL2/3 and HeLa-CD4-LTR-β-gal cells
# Test: Cell fusion assay by co-cultivation of HL2/3 and HeLa-CD4-LTR-β-gal cells, β-galactosidase chemiluminescence readout
# Format: cell-based
# Conditions: for Response Chemiluminescence / Response Inhibition (%): Table 1; for Chemiluminescence / Inhibition: Table 2 specificity test
# Procedure: Depending on the culture vessel (T75 or T175), 0.5−2.0×10^6 HL2/3 or HeLa-CD4-LTR-β-gal cells were seeded into their respective Propagation Medium (for HL2/3, DMEM containing 10% FBS and 0.5 mg/ml G418; for HeLa-CD4-LTR-β-gal, DMEM containing 10% FBS, 0.2 mg/ml G418, and 0.1 mg/ml hygromycin B). Culture at 37° C. with 95% air/5% CO2 until the cultures reach 60% confluency, but can not exceed 95% confluency.
# Remove medium by aspiration with 2-ml of glass pipette. Add 5 ml (for T75 flask) or 10 ml (for T175 flask) of the cell dissociation buffer (CDB). Incubate at room temperature for at least 20 minutes. While waiting, prepare potential entry inhibitor (e.g. TNX-355) with cold Assay Medium (DMEM supplemented with 10% FBS) for treatment. Harvest cells in a 15-ml (for T75) or 50-ml (for T175) conical centrifuge tube by repeated pipetting. Determine cell density and viability in 100 μl of samples with Trypan Blue Exclusion method. Centrifuge at 1000 rpm (or 201×g) for 5 minutes. Discard supernatant and resuspend cells in pre-warmed Assay Medium at a cell density of 1×10^6 cells/ml (for HeLa-CD4-LTR-β-gal cells) or 2×10^6 cells/ml (for HL2/3 cells).
# Further dilute HeLa-CD4-LTR-β-gal cells to 0.25×10^6 cells/ml with pre-warmed Assay Medium, and pipette 90 μl to each well of a 96-well clear-bottom white-wall plate using a 12-channel pipet. Add 20 μl of drug or medium to each well as needed. Further dilute HL2/3 cells to 0.5×10^6 cells/ml with pre-warmed Assay Medium, and pipette 90 μl to each well of a 96-well clear-bottom white-wall plate using a 12-channel pipet. Total cells in each well is 6.75×10^4 cells at a ratio of 2:1 (HL2/3 to HeLa-CD4-LTR-β-gal cells). Culture cells at 37° C. with 95% air/5% CO2 for about 24 hours.
# Remove the medium row by row, immediately followed by addition of 50 μl/well of Lysis Solution (Roche Lysis Buffer containing protease inhibitors). Incubate for 60 minutes at 15-25° C. with mild shaking (200-300 rpm). While waiting, dilute 1 volume of concentrated substrate with 99 volumes of Reaction Buffer to make working substrate solution.
# Add 100 μl of the substrate reagent to each well row by row using 12-channel pipette. Incubate for 90 minutes at room temperature with mild shaking (200-300 rpm). While waiting, bring proper volume of Accelerator II solution to room temperature. Add 50 μl of the Accelerator II to each well row by row using 12-channel pipette. Measure light emission with a microplate luminometer. The chemiluminescence readout is reported as light units per second.
# The inhibition of HIV entry inhibitors, including TNX-355, T20, SIM.4, and sCD4, was tested on the co-cultivation-induced fusion between the two cell lines (HL2/3 to HeLa-CD4-LTR-β-gal cells). TNX-355 is a humanized anti-CD4 domain 2 antibody, T20 a synthetic oligopeptide mimicking the […] HR-2 region, SIM.4 a monoclonal anti-CD4 domain 1 antibody, and sCD4 is a soluble extracellular portion of CD4 molecule. Multiple levels of each reagent were tested following the procedures described in the Materials and Methods.
# Assay specificity was addressed by comparing the inhibitory activity of TNX-355 to those of two structurally similar but functionally irrelevant antibodies. These antibodies are TNX-224 (a humanized antibody IgG4 which differs in complementary determining regions (CDR) but share a majority of sequence homology to TNX-355) and TNX-901 (a humanized antibody IgG1).
molecule,measurement,setting,value
"TNX-355: humanized anti-CD4 domain 2 antibody, IgG4",Response Chemiluminescence,reagent 0.1 ng/ml,39185 ± 1260.79 light units per second
same,Response Inhibition (%),reagent 0.1 ng/ml,23.2%
same,Response Chemiluminescence,reagent 10 ng/ml,34525 ± 2281.39 light units per second
same,Response Inhibition (%),reagent 10 ng/ml,33.7%
same,Response Chemiluminescence,reagent 25 ng/ml,29152 ± 2492.87 light units per second
same,Response Inhibition (%),reagent 25 ng/ml,45.8%
same,Response Chemiluminescence,reagent 50 ng/ml,23993 ± 650.74 light units per second
same,Response Inhibition (%),reagent 50 ng/ml,57.3%
same,Response Chemiluminescence,reagent 100 ng/ml,18724 ± 989.73 light units per second
same,Response Inhibition (%),reagent 100 ng/ml,69.2%
same,Response Chemiluminescence,reagent 200 ng/ml,12312 ± 1516.60 light units per second
same,Response Inhibition (%),reagent 200 ng/ml,83.5%
same,Response Chemiluminescence,reagent 1000 ng/ml,6896 ± 383.09 light units per second
same,Response Inhibition (%),reagent 1000 ng/ml,95.7%
same,Response Inhibition (%),reagent 10000 ng/ml,100.0%
same,Response Chemiluminescence,"reagent 10000 ng/ml, about 24 hours co-cultivation",4978 ± 669.32 light units per second
same,Chemiluminescence,antibody amount 0.025 μg/ml,34121 ± 714.43 light units per second
same,Inhibition,antibody amount 0.025 μg/ml,20%
same,Chemiluminescence,antibody amount 1.0 μg/ml,5135 ± 432.41 light units per second
same,Inhibition,antibody amount 1.0 μg/ml,88%
B1,Chemiluminescence,antibody amount 0.025 μg/ml,42629 ± 664.10 light units per second
same,Inhibition,antibody amount 0.025 μg/ml,0%
same,Chemiluminescence,antibody amount 10 μg/ml,42847 ± 1429.78 light units per second
same,Inhibition,antibody amount 10 μg/ml,0%
